Measured values reported in patent EP0258134A1, “Therapeutical compositions containing benzhydryl thiomethane derivatives” (LABORATOIRE L. LAFON, priority 1986, dated 1988).

How the values were obtained:
souris [1] = assay: Global behaviour and reactivities, mouse, i.p.; assay type: in vivo
Experimental: (§1) Le composé CRL 41 334, en suspension dans une solution de gomme arabique, a été administré par voie intrapéritonéale sous un volume de 20 ml/kg chez la souris (mâle, NMRI, C.E.R. Janvier) et de 5 ml/kg chez le rat (mâle, CD₁; SPRAGUE DAWLEY, Charles River).
(§2) Des lots de 3 animaux sont observés avant, puis 15 mn, 30 mn, 1h, 2h, 3h et 24 heures après l'administration du composé CRL 41 334.
(§3) Le CRL 41 055, en suspension dans une solution de gomme arabique, a été administré par voie intrapéritonéale sous un volume de 20 ml/kg chez la souris (mâle, NMRI, Evic Ceba).
(§4) Le CRL 40 956, en suspension dans une solution de gomme arabique a été administré par voie intrapéritonéale sous un volume de 20 ml/kg chez la souris (mâle, NMRI, Evic Céba) et de 5 ml/kg chez le rat (mâle, CD₁, Sprague Dawley, Charles River).
(§5) Des lots de 3 animaux sont observés avant, puis 15 mn, 30 mn, 1 h, 2 h, 3 h et 24 heures après l'administration de CRL 40 956.

souris [2] = assay: Asphyxic anoxia (gallamine triethiodide); assay type: in vivo; details: 512 mg/kg, gallamine 32 mg/kg i.p.
Experimental: Des lots de 20 souris reçoivent le composé CRL 41 334 une demi-heure avant l'administration intrapéritonéale de 32 mg/kg de triiodoéthylate de gallamine.
Des lots de 10 souris reçoivent le CRL 40 956 une demi-heure avant l'administration intrapé-ritonéale de 32 mg/kg de triodoéthylate de Gallamine.

souris [3] = assay: Spontaneous motility (actimeter); assay type: in vivo; details: souris, half an hour before the actimeter
Experimental: Après avoir reçu le composé CRL 41 334, les souris sont placées en actimètre où leur motilité est enregistrée pendant 30 minutes.
Une demi-heure après avoir reçu le CRL 41 055, les souris (6 par dose, 12 témoins) sont placées en actimètre où leur motilité est enregistrée pendant 30 minutes.
Une demi-heure après avoir reçu le CRL 40 956, les souris (6 par dose, 12 témoins) sont placées en actimètre ou leur motilité est enregistrée pendant 30 minutes.

souris [4] = assay: Interaction with barbital; assay type: in vivo; details: souris, 512 mg/kg, barbital 200 mg/kg i.p.
Experimental: Une demi-heure après l'administration du composé CRL 41 334, des lots de 20 souris reçoivent une injection intrapéritonéale de barbital ([…]).
Une demi-heure après l'administration du CRL 40 956 des lots de 10 souris reçoivent une injection intrapéritonéale de 200 mg/kg de barbital.

souris [5] = assay: Intergroup aggressiveness; assay type: in vivo; details: 128 mg/kg
Experimental: Après avoir séjourné pendant 3 semaines dans chacune des moitiés d'une cage séparées par une cloison opaque, des groupes de 3 souris reçoivent le composé CRL 41 334. Une demi-heure plus tard, les deux groupes d'une même cage sont réunis par retrait de la cloison et on note le nombre de combats qui surviennent en 10 minutes. Le test est pratiqué pour moitié sur les souris habituelles (NMRI, C.E.R. Janvier) et pour moitié sur des souris NMRI (Iffa Credo).
Après avoir séjourné pendant 3 semaines dans chacune des moitiés d'une cage séparée par une cloison opaque, des groupes de 3 souris reçoivent le CRL 40 956. Une demi-heure plus tard, les deux groupes d'une même cage sont réunis par retrait de la cloison et on note le nombre de combats qui surviennent en 10 minutes.

souris [6] = assay: Behavioural despair (forced immersion); assay type: in vivo; details: souris, 512 mg/kg
Text: Une demi-heure après avoir reçu le composé CRL 41 334, des lots de 6 souris (mâles, CD₁, Charles River) sont placés dans un bécher rempli d'eau sur une hauteur de 6 cm. On note la durée totale d'immobilité entre la 2ème et la 6ème minutes suivant l'immersion.
Une demi-heure après avoir reçu le CRL 40 956, des lots de 10 souris (mâles CD₁ Charles River) sont plongées dans une enceinte réduite remplie d'eau sur une hauteur de 6 cm. On note la durée totale d'immobilité entre la 2ème et la 6ème minute suivant l'immersion.

souris [7] = assay: Pretoxicity, i.p., 3 mice per dose; assay type: in vivo
Experimental: as §1
I - PRETOXICITE ( 3 souris par dose)
as §3
Prétoxicite (3 souris par dose)
as §4
Prétoxicité ( 3 souris par dose)

Solubility in water = assay type: physicochemical; details: result in words
Text: Le composé est une poudre blanche, insoluble dans l'éther de pétrole, soluble dans l'éther, l'acé-tate d'éthyle et les alcools. Sa solubilité dans l'eau est inférieure à 0,1%.

rat [8] = assay: Global behaviour and reactivities, rat, i.p.; assay type: in vivo; details: rat
Experimental: as §1, §2, §4, §5

rat [9] = assay: Interaction with apomorphine, rat; assay type: in vivo; details: 64 et 256 mg/kg, apomorphine 0,5 mg/kg s.c.
Experimental: Le composé CRL 41 334 est administré à des lots de 6 rats une demi-heure avant l'injection sous-cutanée de 0,5 mg/kg d'apomorphine.
Le CRL 40 956 est administré à des lots de 6 rats une demi-heure avant l'injection sous cutanée de 0,5 mg/kg d'apomorphine.

souris [10] = assay: Motility reduced by habituation to the enclosure; assay type: in vivo; details: 32 et 128 mg/kg
Experimental: Après 18 heures de séjour dans les actimè-tres, les souris (6 par dose, 12 témoins) reçoivent le composé CRL 41 334. Elles sont aussitôt replacées dans leurs enceintes respectives et, une demi-heure plus tard, on enregistre leur motilité pendant 30 minutes.
Après 18 heures de séjour dans les actimètres, les souris (6 par dose, 12 émoins) reçoivent le CRL 41 055. Elles sontaussitôt replacées dans leurs enceintes respectives et, une demi-heure plus tard, on enregistre leur motilité pendant 30 minutes.

homme = assay: Therapeutic use in humans; assay type: in vivo; details: trois gélules de 50 mg par jour
[11] = tested on: souris femelles de souche OF₁; assay: Delayed hypersensitivity reaction to sheep red blood cells; assay type: in vivo; details: for Ind. Activité / % d'augmentation du coussinet (mm) m: voie orale; for % d'augmentation du coussinet (mm) m: trois jours avant immunisation
Text: Selon la méthode de Miller, Lagrange et Mackaness ("Immunopotentiation with BCG II modulation of the response to sheep red blood cells", Journal of the National Cancer Institute 1973, 51, 5, 1669 - 1676).
Le composé à tester est administré par voie orale a des souris femelles de souche OF₁ trois jours avant immunisation.
Les résultats sont exprimés en pourcentage d'augmentation du coussinet plantaire.

rat [12] = assay: Search for stereotyped movements, rat; assay type: in vivo; details: in vivo, 2 mg/kg
Text: Des lots de 6 rats reçoivent une injection du composé CRL 41 334 ou d'amphétamine, puis sont immédiatement placés dans des boîtes de petites dimensions (20 x 10 x 10 cm) où leur comportement stéréotypeé est coté de 0 à 3 jusqu'à extinction de l'effet.

ON=CCSC(c1ccccc1)c1ccccc1 [CRL 40 956, 2-(benzhydrylthio)acétaldoxime]
comportement et réactivités (souris [1]; souris, 512 mg/kg i.p.): sédation pendant 2 à 3 heures
comportement et réactivités (souris [1]; souris, 128, 32 et 8 mg/kg i.p.): pas de symptômes nets
apparition des convulsions et de la mort (souris [2]): retarde modérément l'apparition des convulsions et de la mort
activité motrice spontanée (souris [3]; 512 mg/kg): diminue fortement l'activité motrice spontanée
durée du sommeil barbiturique (souris [4]): diminue la durée du sommeil barbiturique
nombre de combats (souris [5]): diminue le nombre de combats
durée d'immobilité "de désespoir" (souris [6]): diminue la durée d'immobilité
symptômes (souris [7]; 256 mg/kg i.p.): mêmes symptômes
mortalité (souris [7]; 1024 et 512 mg/kg i.p.): pas de mortalité
symptômes (souris [7]; 1024 et 512 mg/kg i.p.): crampes abdominales, dyspnée
solubilité dans l'eau (Solubility in water): Insoluble dans l'eau
comportement et réactivités (rat [8]; 64 mg/kg i.p.): sédation pendant 3 heures avec diminution
comportement et réactivités (rat [8]; 256 mg/kg i.p.): sédation pendant 3 heures
stéréotypies induites par l'apomorphine (rat [9]): diminue très modérément l'intensité des stéréotypies

NC(=O)CSC(c1ccccc1)c1ccccc1 [CRL 41 055, 2-(benzhydrylthio)acétamide]
comportement et réactivités (souris [1]; souris, 2 mg/kg i.p.): pas de modifications nettes
comportement et réactivités (souris [1]; souris, 128 mg/kg i.p.): sédation pendant 30 minutes faisant place à une excitation tardive
comportement et réactivités (souris [1]; souris, 8 et 32 mg/kg i.p.): excitation pendant 2 heures
motilité spontanée (souris [3]; 32 et 128 mg/kg): augmentation de motilité spontanée
activité motrice chez la souris habituée à son enceinte (souris [10]): reprise nette de l'activité motrice
symptômes (souris [7]; 64 mg/kg i.p., after 45 minutes, lasting more than 2 hours): excitation, stéréotypies (reniflements, redressements)
symptômes (souris [7]; 512 mg/kg i.p.): sédation, fréquence respiratoire diminuée, contractions abdominales
convulsions (souris [7]; 512 mg/kg i.p., 18 heures après l'injection): convulsions intermittentes présentes chez toutes les souris
mortalité (souris [7]; 512 mg/kg i.p., après 48 heures): 1/3
symptômes (souris [7]; 1024 mg/kg i.p.): mêmes symptômes
mortalité (souris [7]; 128 et 256 mg/kg i.p.): Pas de mortalité
symptômes (souris [7]; 128 et 256 mg/kg i.p.): pendant 45 minutes sédation, fréquence respiratoire diminuée
solubilité dans l'eau (Solubility in water): insoluble dans l'eau
thérapeutique humaine comme antidépresseur (homme): s'est avéré utile

O=C(CSC(c1ccc(F)cc1)c1ccc(F)cc1)NO [CRL 41 335, acide 2-(4,4ʹ-difluorobenzhydrylthio)acétohydroxamique]
Ind. Activité ([11]; Exp 1, 0,1 mg/kg): 1,29
% d'augmentation du coussinet (mm) m ([11]; Exp 1, 0,1 mg/kg): 11,5%
Ind. Activité ([11]; Exp 1, 1 mg/kg): 0,94
% d'augmentation du coussinet (mm) m ([11]; Exp 1, 1 mg/kg): 8,4%
Ind. Activité ([11]; Exp 1, 10 mg/kg): 1,00
% d'augmentation du coussinet (mm) m ([11]; Exp 1, 10 mg/kg): 8,9%
Ind. Activité ([11]; Exp 1, 100 mg/kg): 0,77
% d'augmentation du coussinet (mm) m ([11]; Exp 1, 100 mg/kg): 6,9%
action immunostimulante ([11]; overall statement in the text): dépourvu d'une telle action immostimulante
solubilité dans l'eau (Solubility in water): insoluble dans l'eau

CC(N)Cc1ccccc1 (stereo not drawn) [amphétamine, reference compound]
durée des stéréotypies (rat [12]): 270 min
